# Counter-ions that a name gives are not always drawn.
# Biological target: ROCK2 (Homo sapiens (Human), UniProt O75116)
# Test: ROCK2 kinase inhibition assay (FITC peptide substrate, LABCHIP 3000 Reader)
# Type: biochemical
# Details: 5 μM ATP, 1.5 μM peptide substrate
# Method in brief: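 IC50 derived by curve fitting of dose-response inhibition, read as separation of phosphorylated from unphosphorylated FITC peptide (1.5 μM) after EDTA stop. Buffer: HEPES pH 7.5, MgCl2, Brij-35, DTT; ATP 5 μM; final DMSO <2%; reaction initiated by Rho kinase addition.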
# ROCK2, sequence (O75116 whole entry, species assumed): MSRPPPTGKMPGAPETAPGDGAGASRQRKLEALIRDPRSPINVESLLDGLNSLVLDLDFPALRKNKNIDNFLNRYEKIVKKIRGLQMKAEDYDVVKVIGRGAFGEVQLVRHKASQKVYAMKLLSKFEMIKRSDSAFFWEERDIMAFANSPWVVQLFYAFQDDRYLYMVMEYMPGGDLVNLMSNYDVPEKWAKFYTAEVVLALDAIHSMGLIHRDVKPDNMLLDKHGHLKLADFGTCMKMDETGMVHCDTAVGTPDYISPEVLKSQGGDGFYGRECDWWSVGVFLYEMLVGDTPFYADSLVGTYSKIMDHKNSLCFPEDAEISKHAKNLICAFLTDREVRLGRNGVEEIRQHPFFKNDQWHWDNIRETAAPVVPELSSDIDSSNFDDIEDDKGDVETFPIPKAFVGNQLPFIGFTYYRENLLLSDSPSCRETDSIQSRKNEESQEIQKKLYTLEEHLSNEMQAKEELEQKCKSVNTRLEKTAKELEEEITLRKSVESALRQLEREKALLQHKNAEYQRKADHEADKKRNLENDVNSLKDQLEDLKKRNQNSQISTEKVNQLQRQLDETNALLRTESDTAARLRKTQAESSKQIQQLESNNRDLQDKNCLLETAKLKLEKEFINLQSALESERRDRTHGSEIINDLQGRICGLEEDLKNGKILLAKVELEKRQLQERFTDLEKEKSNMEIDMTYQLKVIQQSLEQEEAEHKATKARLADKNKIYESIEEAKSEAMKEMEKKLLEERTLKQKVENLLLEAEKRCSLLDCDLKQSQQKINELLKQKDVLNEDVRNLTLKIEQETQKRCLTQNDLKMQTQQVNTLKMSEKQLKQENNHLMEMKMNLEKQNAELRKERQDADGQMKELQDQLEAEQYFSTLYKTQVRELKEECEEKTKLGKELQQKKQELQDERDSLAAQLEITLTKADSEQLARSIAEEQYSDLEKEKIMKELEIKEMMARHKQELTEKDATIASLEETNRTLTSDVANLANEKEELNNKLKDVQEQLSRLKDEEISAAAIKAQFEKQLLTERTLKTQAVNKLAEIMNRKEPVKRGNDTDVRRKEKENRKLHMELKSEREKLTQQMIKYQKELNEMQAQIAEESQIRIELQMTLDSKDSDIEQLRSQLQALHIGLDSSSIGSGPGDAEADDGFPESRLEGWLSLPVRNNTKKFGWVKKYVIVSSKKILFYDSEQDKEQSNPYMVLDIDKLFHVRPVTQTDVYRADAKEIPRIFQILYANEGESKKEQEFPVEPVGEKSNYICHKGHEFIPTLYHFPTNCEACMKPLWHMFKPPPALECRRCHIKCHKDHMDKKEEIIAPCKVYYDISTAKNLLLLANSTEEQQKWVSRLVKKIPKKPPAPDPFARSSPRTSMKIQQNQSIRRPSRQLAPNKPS
row,IC50,Structure (SMILES)
1,< 3 nM,"COc1nc(N2CC3(CCN(C(=O)C(C)(C)O)CC3)N(Cc3cccc(F)c3C)C2=O)ccc1-c1cn[nH]c1 [Example 230, 1-(3-fluoro-2-methylbenzyl)-8-(2-hydroxy-2-methylpropanoyl)-3-(6-methoxy-5-(1H-pyrazol-4-yl)pyridin-2-yl)-1,3,8-triazaspiro[4.5]decan-2-one]"
2,< 3 nM,"CCc1nc(N2CC3(CCN(C(=O)CO)CC3)N(Cc3cccc(F)c3C)C2=O)ccc1-c1cn[nH]c1 [Example 181, 3-(6-ethyl-5-(1H-pyrazol-4-yl)pyridin-2-yl)-1-(3-fluoro-2-methylbenzyl)-8-(2-hydroxyacetyl)-1,3,8-triazaspiro[4.5]decan-2-one]"
3,< 3 nM,"CCc1nc(N2CC3(CCN(CC(C)O)CC3)N(Cc3cccc(F)c3C)C2=O)ccc1-c1cn[nH]c1 (centres unmarked) [Example 156, 3-(6-ethyl-5-(1H-pyrazol-4-yl)pyridin-2-yl)-1-(3-fluoro-2-methylbenzyl)-8-(2-hydroxypropyl)-1,3,8-triazaspiro[4.5]decan-2-one]"
4,< 3 nM,"COCCN1CCC2(CC1)CN(c1ccc(-c3cn[nH]c3)c(OC)n1)C(=O)N2Cc1cccc(F)c1C [Example 165, 1-(3-fluoro-2-methylbenzyl)-3-(6-methoxy-5-(1H-pyrazol-4-yl)pyridin-2-yl)-8-(2-methoxyethyl)-1,3,8-triazaspiro[4.5]decan-2-one]"
5,3 to 30 nM,"COc1nc(N2CC3(CCN(C(=O)CC(C)c4ccccc4)CC3)N(Cc3cccc(F)c3C)C2=O)ccc1-c1cn[nH]c1 (centres unmarked) [Example 224, 1-(3-fluoro-2-methylbenzyl)-3-(6-methoxy-5-(1H-pyrazol-4-yl)pyridin-2-yl)-8-(3-phenylbutanoyl)-1,3,8-triazaspiro[4.5]decan-2-one]"
6,< 3 nM,"COc1cccc(CN2C(=O)N(c3ccc(-c4cn[nH]c4)cn3)CC23CCN(CC(C)(C)O)CC3)c1 [Example 161, 3-(5-(1H-pyrazol-4-yl)pyridin-2-yl)-8-(2-hydroxy-2-methylpropyl)-1-(3-methoxybenzyl)-1,3,8-triazaspiro[4.5]decan-2-one]"
7,< 3 nM,"COc1cc(F)cc(CN2C(=O)N(c3ccc(-c4cn[nH]c4)cc3)CC23CCN(CCO)CC3)c1 [Example 144, 3-(4-(1H-pyrazol-4-yl)phenyl)-1-(3-fluoro-5-methoxybenzyl)-8-(2-hydroxyethyl)-1,3,8-triazaspiro[4.5]decan-2-one]"
8,< 3 nM,"CCc1nc(N2CC3(CCN(C(=O)OC)CC3)N(Cc3cc(F)cc(OC)c3)C2=O)ccc1-c1cn[nH]c1 [Example 107, methyl 3-(6-ethyl-5-(1H-pyrazol-4-yl)pyridin-2-yl)-1-(3-fluoro-5-methoxybenzyl)-2-oxo-1,3,8-triazaspiro[4.5]decane-8-carboxylate]"
9,3 to 30 nM,"COc1cccc(CN2C(=O)N(c3ccc(-c4cn[nH]c4)cn3)CC23CCN(CC(C)O)CC3)c1 (centres unmarked) [Example 160, 3-(5-(1H-pyrazol-4-yl)pyridin-2-yl)-8-(2-hydroxypropyl)-1-(3-methoxybenzyl)-1,3,8-triazaspiro[4.5]decan-2-one]"
10,< 3 nM,"CCc1nc(N2CC3(CCN(C(=O)C(C)(C)CO)CC3)N(Cc3cccc(OC)c3)C2=O)ccc1-c1cn[nH]c1 [Example 204, 3-(6-ethyl-5-(1H-pyrazol-4-yl)pyridin-2-yl)-8-(3-hydroxy-2,2-dimethylpropanoyl)-1-(3-methoxybenzyl)-1,3,8-triazaspiro[4.5]decan-2-one]"
11,< 3 nM,"CCc1nc(N2CC3(CCN(CCO)CC3)N(Cc3cccc(F)c3C)C2=O)ccc1-c1cn[nH]c1 [Example 149, 3-(6-ethyl-5-(1H-pyrazol-4-yl)pyridin-2-yl)-1-(3-fluoro-2-methylbenzyl)-8-(2-hydroxyethyl)-1,3,8-triazaspiro[4.5]decan-2-one]"
12,30 to 250 nM,"COc1cccc(CN2C(=O)N(c3ccc(-c4cn[nH]c4)c(C)n3)CC23CCN(C(=O)OC(C)(C)C)CC3)c1 [Example 52, tert-butyl 1-(3-methoxybenzyl)-3-(6-methyl-5-(1H-pyrazol-4-yl)pyridin-2-yl)-2-oxo-1,3,8-triazaspiro[4.5]decane-8-carboxylate]"

# Second part, the compound before the results:
row,Structure (SMILES),IC50
1,"CN(C(=O)c1cccc(CN2C(=O)N(c3ccc(-c4cn[nH]c4)cc3)CC23CCOCC3)c1)C1CC1 [Example 45, 3-((3-(4-(1H-pyrazol-4-yl)phenyl)-2-oxo-8-oxa-1,3-diazaspiro[4.5]decan-1-yl)methyl)-N-cyclopropyl-N-methylbenzamide]",< 3 nM
2,"COc1cccc(CN2C(=O)N(c3ccc(-c4cn[nH]c4)cc3)CC23CCN(C(N)=O)CC3)c1 [Example 92, 3-(4-(1H-pyrazol-4-yl)phenyl)-1-(3-methoxybenzyl)-2-oxo-1,3,8-triazaspiro[4.5]decane-8-carboxamide]",< 3 nM
3,"COc1cccc(NC2C(=O)N(c3ccc(-c4cn[nH]c4)cc3)CC23CCN(C(=O)CO)CC3)c1 (centres unmarked) [Example 250, 2-(4-(1H-pyrazol-4-yl)phenyl)-8-(2-hydroxy-acetyl)-4-((3-methoxy-phenyl)amino)-2,8-diazaspiro [4.5]decan-3-one]",250 to 3000 nM
4,"COc1cccc(CN2C(=O)N(c3ccc(-c4cn[nH]c4)cc3)CC23CC[N+]([O-])(CCO)CC3)c1 (centres unmarked) [Example 145, 3-(4-(1H-pyrazol-4-yl)phenyl)-8-(2-hydroxyethyl)-1-(3-methoxybenzyl)-2-oxo-1,3,8-triazaspiro[4.5]decane 8-oxide]",< 3 nM
5,"COc1cccc(CN2C(=O)N(c3ccc(-c4cn[nH]c4)cc3)CC23CCNCC3)c1 [Example 57, 3-(4-(1H-pyrazol-4-yl)phenyl)-1-(3-methoxybenzyl)-1,3,8-triazaspiro[4.5]decan-2-one]",< 3 nM
6,"O=C1N(c2ccc(-c3cn[nH]c3)cc2)CC2(CCOCC2)N1Cc1ccc(F)c(F)c1 [Example 17, 3-(4-(1H-pyrazol-4-yl)phenyl)-1-(3,4-difluorobenzyl)-8-oxa-1,3-diazaspiro[4.5]decan-2-one]",3 to 30 nM
7,"COc1cccc(CN2C(=O)N(c3ccc(-c4cn[nH]c4)cc3)CC23CCN(S(C)(=O)=O)CC3)c1 [Example 234, 3-(4-(1H-pyrazol-4-yl)phenyl)-1-(3-methoxybenzyl)-8-(methylsulfonyl)-1,3,8-triazaspiro[4.5]decan-2-one]",< 3 nM
8,"O=C(NCC1CC1)c1cccc(CN2C(=O)N(c3ccc(-c4cn[nH]c4)cc3)CC23CCOCC3)c1 [Example 37, 3-((3-(4-(1H-pyrazol-4-yl)phenyl)-2-oxo-8-oxa-1,3-diazaspiro[4.5]decan-1-yl)methyl)-N-(cyclopropylmethyl)benzamide]",< 3 nM
9,"COc1cccc(CN2C(=O)N(c3ccc(-c4cn[nH]c4)cc3)CC23CCN(CCC(F)(F)F)CC3)c1 [Example 121, 3-(4-(1H-pyrazol-4-yl)phenyl)-1-(3-methoxybenzyl)-8-(3,3,3-trifluoropropyl)-1,3,8-triazaspiro[4.5]decan-2-one]",< 3 nM
10,"O=C1N(c2ccc(-c3cn[nH]c3)cc2)CC2(CC2)N1Cc1cccc(OCC2CC2)c1 [Example 7, 6-(4-(1H-pyrazol-4-yl)phenyl)-4-(3-(cycloproylmethoxy)benzyl)-4,6-diazaspiro[2.4]heptan-5-one]",3 to 30 nM
11,O=C1N(c2ccc(-c3cn[nH]c3)cc2)CC2(CCOCC2)N1Cc1cccc(Cl)c1 [Example 15],250 to 3000 nM
12,"O=C1N(c2ccc(-c3cn[nH]c3)cc2)CC2(CCNCC2)N1Cc1cccc(OCC2CC2)c1 [Example 60, 3-(4-(1H-pyrazol-4-yl)phenyl)-1-(3-(cyclopropylmethoxy)benzyl)-1,3,8-triazaspiro[4.5] decan-2-one, TFA]",3 to 30 nM
13,"COc1cccc(NC2C(=O)N(c3ccc(-c4cn[nH]c4)cn3)CC23CCN(C(=O)CCn2cc(C)c4ccccc42)CC3)c1 (centres unmarked) [Example 256, 2-(5-(1H-pyrazol-4-yl)pyridin-2-yl)-4-((3-methoxy-phenyl)amino)-8-(3-(3-methyl-1H-indol-1-yl)propanoyl)-2,8-diazaspiro [4.5]decan-3-one]",30 to 250 nM
14,"CC(=O)N1CCC2(CC1)CN(c1ccc(-c3cn[nH]c3)cc1)C(=O)N2Cc1cc(F)ccc1C [Example 83, 3-(4-(1H-pyrazol-4-yl)phenyl)-8-acetyl-1-(5-fluoro-2-methylbenzyl)-1,3,8-triazaspiro[4.5]decan-2-one]",3 to 30 nM
15,"COc1cccc(CN2C(=O)N(c3ccc(-c4cn[nH]c4)cc3)CC23CCN(CC(O)CO)CC3)c1 (centres unmarked) [Example 120, 3-(4-(1H-pyrazol-4-yl)phenyl)-8-(2,3-dihydroxypropyl)-1-(3-methoxybenzyl)-1,3,8-triazaspiro[4.5]decan-2-one]",< 3 nM
16,"COC(=O)N1CCC2(CC1)CN(c1ccc(-c3cn[nH]c3)cc1)C(=O)N2Cc1cc(F)cc(OC)c1 [Example 109, methyl 3-(4-(1H-pyrazol-4-yl)phenyl)-1-(3-fluoro-5-methoxybenzyl)-2-oxo-1,3,8-triazaspiro[4.5]decane-8-carboxylate]",< 3 nM
17,"O=C1N(c2ccc(-c3cn[nH]c3)cc2)CC2(CCOCC2)N1Cc1cccc(OCC2CC2)c1 [Example 11, 3-(4-(1H-pyrazol-4-yl)phenyl)-1-(3-(cyclopropylmethoxy)benzyl)-8-oxa-1,3-diazaspiro[4.5]decan-2-one]",3 to 30 nM
18,"COc1cccc(CN2C(=O)N(c3ccc(-c4cn[nH]c4)cc3)CC23CCN(C(=O)C2CCC2)CC3)c1 [Example 172, 3-(4-(1H-pyrazol-4-yl)phenyl)-8-(cyclobutanecarbonyl)-1-(3-methoxybenzyl)-1,3,8-triazaspiro[4.5]decan-2-one]",< 3 nM
19,"O=C(c1cccc(CN2C(=O)N(c3ccc(-c4cn[nH]c4)cc3)CC23CCOCC3)c1)N1CCC(CO)CC1 [Example 47, 3-(4-(1H-pyrazol-4-yl)phenyl)-1-(3-(4-(hydroxymethyl)piperidine-1-carbonyl)benzyl)-8-oxa-1,3-diazaspiro[4.5]decan-2-one]",3 to 30 nM
20,"COc1cccc(CN2C(=O)N(c3ccc(-c4cn[nH]c4)cc3)CC23CCN(C(=O)[C@H](C)O)CC3)c1 [Example 177, (S)-3-(4-(1H-pyrazol-4-yl)phenyl)-8-(2-hydroxypropanoyl)-1-(3-methoxybenzyl)-1,3,8-triazaspiro[4.5]decan-2-one]",< 3 nM

# From patent US10787450B2 (BRISTOL-MYERS SQUIBB COMPANY, priority 2016, dated 2020)
